Results taken from patent US20250171413A1, “ANTIVIRAL INDOLINYL COMPOUNDS AND USES THEREOF” (Gilead Sciences, Inc., priority 2023, published 2025).
Like-named read-outs stand apart in the source and are kept apart here.

System: HSV-2 virus (MS strain)
Experiment: HSV-2 Cellomics Assay (immunofluorescence of HSV protein gD)
Assay type: cell-based
Protocol: Compounds were tested for their ability to inhibit HSV-2 replication by monitoring the expression of the HSV protein gD using a high-throughput immunofluorescence-based assay. 10-dose, 3-fold serial dilutions of compounds were prepared at starting concentrations of 0.2 or 2 mM in 100% DMSO. 250 nl of compounds were spotted in quadruplicates onto black collagen-coated 384-well microplates with clear bottom (Greiner cat #781956) using a Labcyte ECHO acoustic dispenser. The final starting concentration in the assay was either […]. DMSO (no compound) and pritelivir were included on each microplate as negative and positive controls, respectively.
ARPE-19 cells (ATCC cat #CRL-2302) were maintained DMEM/F-12 Glutamax medium (Thermo Fisher Scientific cat #10565018) supplemented with 10% FBS (Corning cat #35-011-CV) and 1% Penicillin-Streptomycin (cat #30-002-CI). Prior to confluence, cells were transferred to a centrifuge tube and spun for 5 minutes at 1000 rpm. Cells were resuspended in assay medium (DMEM/F-12 Glutamax, 2% FBS, 1% Penicillin-Streptomycin) and counted. Cell density was adjusted to 150,000 cells/ml and infected with HSV-2 virus (MS strain, ATCC cat #VR-540) at a MOI of 0.06 in a 50 ml conical tube for 1 hour under constant rocking. Cells were then spun for 5 minutes at 1000 rpm and the media replaced with assay medium containing either 2% FBS or 10% human serum (EMD Millipore cat #S1-100ML). 50 μl of the infection suspension were added into microplate wells that were pre-spotted with compounds (7,500 cells per well). Plates were incubated for 16 hours at 37° C.
Cell culture medium was aspirated using a Biomek Fx and 50 μl of a paraformaldehyde solution (Electron Microscopy Sciences cat #15712-5) diluted to 4% in DPBS (Corning cat #21-031-CM) were added per well. After a 30-minute incubation at room temperature, plates were washed 4 times with 100 μl/well of PBS using a Biotek plate washer. A 1:500 solution of primary antibody (anti-HSV gD, Virusys cat #P1103) was prepared in permeabilization buffer (Invitrogen cat #00-8333-56) and 50 μl were added into wells. After a 1-hour incubation at room temperature, 50 μl of a 1:1000 solution of secondary antibody (Alexa Fluor 488 goat anti-mouse, Thermo Fisher Scientific cat #A11001) and DAPI (Thermo Fisher Scientific cat #62248) in permeabilization buffer were added into wells and plates were incubated in the dark at room temperature for 1 hour. Plates were washed 4 times again and 50 μl of DPBS were added to all wells prior to sealing the plates with a black adhesive seal. Fluorescence was measured on a Cellomics plate reader.
Data analysis was carried out using the Thermo Scientific HCS Studio software. Briefly, cells were identified using the DAPI nuclear stain and thresholds were set to filter cells out based on shape and size. A second threshold based on green fluorescence intensity (detection of HSV-2 gD) was set to identify HSV-2 infected cells. Data was reported as the average fluorescence intensity of HSV-2 infected cells. EC50 values were defined as the compound concentration that caused a 50% decrease in the average fluorescence intensity and was calculated using a sigmoidal dose-response model to generate curve fits.

SMILES | EC50 (Human alphaherpesvirus 2, HSV-2 (MS strain, MOI 0.06) infected ARPE-19 cells, assay medium containing 2% FBS, 16 hours, read-out: EC50-HSV2-FBS) [nM] | EC50 (Human alphaherpesvirus 2, HSV-2 (MS strain, MOI 0.06) infected ARPE-19 cells, assay medium containing 10% human serum, 16 hours, read-out: EC50-HSV2-10% Human Serum) [nM] | EC50 (Human alphaherpesvirus 2, ARPE-19, read-out: EC50 in HSV-2 Cellomics assay) [nM]
CCCC(=O)NS(=O)(=O)c1cc2c(cc1F)C[C@@H](C)N2C(=O)[C@@H]1Cc2ccc(-c3ccccn3)cc2C1 [Example 32, N—(((R)-5-fluoro-2-methyl-1-((R)-5-(pyridin-2-yl)-2,3-dihydro-1H-indene-2-carbonyl)indolin-6-yl)sulfonyl)butyramide] | 231 | 2380 | –
Cc1nc(N(C)C(=O)Cc2ccc(-c3ccccn3)cc2)sc1S(N)(=O)=O [pritelivir, reference compound] | – | – | 150
